Data reported in patent US4803221A, “Anthracene derivatives” (priority 1987, dated 1989).
Structures can show the parent of a compound that is named as a salt. Where two headings read alike, the source gives them in different places.

How the values were obtained:
LD50 Tests = conditions: in vivo; IP single dose, CD-1 male mouse
Excerpt: |(IP single dose - CD-1 Male Mouse)

[1] = test system: lymphocytic leukemia P388/0; test: Lymphocytic Leukemia P388/0 Test; assay type: in vivo, mouse (CD2-F1); set-up: LD20: unit: mg/kg; conditions: ip days 1, 5, 9; for LD20: doses on a mg/kg basis; for T/C × 100% (Excluding 30 Day Survivors): median survival time treated/control, at the optimal dose of the compound (Table I), active if ≥120%
Excerpt: (§1) Methods for evaluating the antitumor activity of these compounds are essentially those used in the Tumor Panel by the Developmental Therapeutics Program, Division of Cancer Treatment, National Cancer Institute, A. Goldin, et al., Methods in Cancer Research, Vol. XVI, p.165, Academic Press (1979). Some modifications, in dose level and schedule have been made to increase the testing efficiency.
(§2) CD2-F1 mice, of the same sex, weighing 20±3 g are used for this test. Control and test animals are injected intraperitoneally with a suspension of ~10^6 viable P388/0 tumor cells on day 0. In each test, several dose levels which bracket the LD20 of the compound are evaluated; each dose level group contains six animals. The test compounds are prepared either in physiologic saline containing 0.05% Tween 80 or distilled water containing 5% dextrose and are administered intraperitoneally on days 1, 5, and 9 relative to tumor implant. Doses are on a mg/kg basis according to individual animals' body weights. The day of death for each animal is recorded, the median identified for each group and the ratios of median survival time for treated (T)/control (C) Groups are calculated. The criterion for activity is T/C×100≥120%.

[2] = Antibacterial screening against Mycoplasma smegmatis; assay type: cell-based
Excerpt: (§3) Antibacterial test against Mycoplasma smegmatis (S3264) and Streptococcus pyogenes (CN10) was done with slight modifications using standard agar dilution assays as outlined in Manual of Clinical Microbiology Second Ed., E. H. Lennette, E. H. Spaulding and J. P. Truant Eds., American Society for Microbiology, Washington, DC, 1974.

[3] = test system: Nippostrongylus brasiliensis; test: Anthelmintic screening against Nippostrongylus brasiliensis; assay type: cell-based
Excerpt: Anthelmintic testing against Nippostrongylus brasiliensis was done using methods outlined in D. C. Jenkins, R. Armitage, and T. S. Carrington, Zeitschrift for Parasitenkunde 63, 261-269 (1980)

Candida albicans = test: Antifungal testing against Candida albicans (CN 1863); assay type: cell-based, Candida albicans (CN1863); conditions: Wellcotest sensitivity test agar plus 7% lysed horse blood
Excerpt: Antifungal testing against Candida albicans (CN 1863) was done with slight modifications using a combination of broth and agar dilution assays as outlined in Laboratory Handbook of Medical Mycology, Chapter 6, pages 441-446, M. R. McGinnis, Academic Press, New York, NY, 1980
Medium: Wellcotest ® sensitivity test agar plus 7% lysed horse blood.

M5076 sarcoma = test: M5076 Sarcoma Test; assay type: in vivo, mouse (B6C3-F1); conditions: survival; 110 mg/kg; ip days 1, 5, 9; active if ≥125%
Excerpt: as §1
This sarcoma arose as a solid tumor in the ovary of a C57Bl/6 mouse and was subsequently converted to the ascitic form for intraperitoneal use. The protocol for this test is identical with that for P388/0. The B6C3-F1mouse strain is used and the criterion for activity is T/C×100≥125%.

Lewis lung carcinoma = test: Lewis Lung Carcinoma Test; assay type: in vivo, mouse (BD-F1); conditions: median survival, iv tumor cells; dosing days 1, 5, 9; dose: 3C 130, 4C 200 mg/kg; active if ≥140%
Excerpt: as §1
This tumor arose spontaneously in the lung of a C57B1/6 mouse and is maintained by subcutaneous passage in that strain. The solid tumor is excised aseptically and placed in sterile saline. Pieces of viable tumor tissue are minced finely with scissors and forced through a 200 mesh stainless steel screen to disaggregate the tumor cells into a suspension. 10^6 Viable cells are injected intravenously into the tail vein of BD-F1, mice of the same sex weighing 20±3 g. In each test, several dose levels which bracket the L20 for the compound are evaluated. Ten animals are included in each dose level grup, and twenty animals in the untreated control group. The test compounds are prepared and administered on days 1, 5, and 9 as in the P388/0 protocol. The day of death for each animal is recorded, the median identified for each group and the ratios of median survival time for treated (T)/control (C) groups are calculated. The criterion for activity is T/C×100≥140%.

[4] = test system: lymphocytic leukemia L1210; test: Lymphocytic Leukemia L1210 Test; assay type: in vivo, mouse (CD2-F1); conditions: median survival; ip days 1, 5, 9; dose: 3C 110, 4C 150 mg/kg; active if >125%
Excerpt: as §1
The protocol for this test is identical to that for P388/0, except that the number of L1210 cells implanted on day 0 is […]. The mouse CD2-F1 strain is used, and the criterion for activity is T/C×100 >125%.

Colon 38 carcinoma = test: Colon 38 Carcinoma Test; assay type: in vivo, mouse (C57Bl/6); conditions: tumor weight, day 20; 150 mg/kg ip days 1, 5, 9; active if ≤42%
Excerpt: as §1
This chemically-induced tumor arose in a C57Bl/6 mouse and is maintained as a solid tumor in that mouse strain. The subcutaneously growing solid tumor is aseptically excised from passage mice and placed in sterile saline. The tumor is trimmed free of visible necrotic and connective tissue, then divided into 2-3 mm cubes. A cube is implanted subcutaneously in the ventral thoracic region with a sterile trochar on day 0. In each test several dose levels which bracket the LD20 for the compound are evaluated. Ten animals are included in each dose level group and thirty animals in the untreated control group. The test compounds are prepared either in physiologic saline containing 0.05% Tween 80 or distilled water containing 5% dextrose and are administered intraperitoneally on days 1, 5 and 9 after tumor implant. […] At day 20, the animals are sacrificed and the longest (L) and shortest (W) dimensions of each tumor measured with vernier calipers. Tumor weight is calculated from the formula [formula] […]

[5] = Lymphocytic Leukemia P388/0 Test; assay type: in vivo, mouse (CD2-F1); set-up: LD20: unit: mg/kg; conditions: mouse, in vivo; ip days 1, 5, 9; doses on a mg/kg basis; read-out: highest nontoxic dose where the LD20 was not determined (values in parentheses in LD20 column)
Excerpt: as §1, §2

Herpes simplex 1/vero = Herpes simplex 1/vero plaque inhibition screen; assay type: cell-based; conditions: plaque inhibition screen
Excerpt: The column headings labeled Score, Toxicity, and Zone of Inhibition refer to the plaque inhibition screen while the IC50 heading to the plaque reduction screen.

Streptococcus pyogenes = test: Antibacterial testing against Streptococcus pyogenes (CN10); assay type: cell-based; conditions: agar dilution
Excerpt: as §3

[6] = immature - free living stages, read-out: MIC

CC(CO)(CO)NCc1c2ccccc2cc2ccccc12.Cl [Example 1, 2-((9-Anthracenylmethyl)amino)-2-methyl-1,3-propanediol hydrochloride]
LD50 (LD50 Tests): 160 mg/kg
LD20 [1]: 150
T/C × 100% (Excluding 30 Day Survivors) [1]: +130%
MIC [2]: < 5 mg/L
MIC [3, 6]: ≥ 50 mg/L
MIC (Candida albicans): > 50 mg/L

CC(CO)(CO)NCc1c2ccccc2c(Cl)c2ccccc12.Cl [Example 2A, 2-(((10-chloro-9-anthracenyl)methyl)amino)-2-methyl-1,3-propanediol hydrochloride]
LD50 (LD50 Tests): 250 mg/kg
LD20 [1]: 556
T/C × 100% (Excluding 30 Day Survivors) [1]: +228%
MIC [2]: 10 mg/L
MIC [3, 6]: ≥ 50 mg/L

CSc1c2ccccc2c(CNC(C)(CO)CO)c2ccccc12.Cl [Example 3B, 2-methyl-2-(((10-methylthio-9-anthracenyl)methyl)amino)-1,3-propanediol hydrochloride]
LD50 (LD50 Tests): 100 mg/kg
LD20 [1]: 120
T/C × 100% (Excluding 30 Day Survivors) [1]: +262%

CSc1c2ccccc2c(CNC(C)(CO)CO)c2ccccc12 [Example 3C, 2-Methyl-2-(((10-methylthio-9-anthracenyl)methyl)amino)-1,3-propanediolmethanesulfonate]
T/C × 100% (M5076 sarcoma): +132%
T/C × 100% Excluding 60 day Survivors (Lewis lung carcinoma): +145%
LD20 [1]: 70
T/C × 100% (Excluding 30 Day Survivors) [1]: +227%
T/C × 100% Excluding 30 day Survivors [4]: +194%

CC(CO)(CO)NCc1c2ccccc2c(CCCl)c2ccccc12 [Example 4C, 2-(((10-(2-Chloroethyl)-9-anthracenyl)methyl)amino)-2-methyl-1,3-propanediol methanesulfonate]
T/C × 100% Excluding 60 day Survivors (Lewis lung carcinoma): +154%
LD20 [1]: 130
T/C × 100% (Excluding 30 Day Survivors) [1]: +218%
T/C × 100% (Colon 38 carcinoma): 38%
T/C × 100% Excluding 30 day Survivors [4]: +217%

Cc1c2ccccc2c(CNC(C)(CO)CO)c2ccccc12 [Example 7, 2-methyl-2-(((10-methyl-9-anthracenyl)methyl)amino)-1,3-propanediol hydrochloride.1/2H2 O]
LD20 [1]: 140
T/C × 100% (Excluding 30 Day Survivors) [1]: +160%
MIC [3]: 50 mg/L

CC(CO)(CO)NCc1c2cccc(Cl)c2cc2c(Cl)cccc12.Cl [Example 10B, 2-(((4,5-dichloro-9-anthracenyl)methyl)amino)-2-methyl-1,3-propanediol hydrochloride]
T/C × 100% (Excluding 30 Day Survivors) [1]: +204%
MTD [5]: 450 mg/kg
Zone of Inhibition (Herpes simplex 1/vero): 32

CC(CO)(CO)NCc1c2ccccc2cc2c(Cl)cccc12.Cl [Example 11B, 2-(((4-Chloro-9-anthracenyl)methyl)amino)-2-methyl-1,3-propanediol hydrochloride]
MIC (Streptococcus pyogenes): ≤ 10 mg/L
LD20 [1]: 200
T/C × 100% (Excluding 30 Day Survivors) [1]: +215%
MIC [2]: ≤ 10 mg/L

COc1c2ccccc2c(CNC(C)(CO)CO)c2ccccc12.Cl [Example 13B, 2-(((10-Methoxy-9-anthracenyl)methyl)amino)-2-methyl-1,3-propanediol hydrochloride]
MIC (Streptococcus pyogenes): 100 mg/L
LD20 [1]: 120
T/C × 100% (Excluding 30 Day Survivors) [1]: +220%
MIC [2]: ≤ 10 mg/L
Zone of Inhibition (Herpes simplex 1/vero): 40

CC(CO)(CO)NCc1c2ccccc2c(OCCO)c2ccccc12 [Example 25B, 2-(((10-(2-hydroxyethoxy)-9-anthracenyl)methyl)amino)-2-methyl-1,3-propanediol hydrochloride 1/2H2 O 1/10EtOH]
LD50 (LD50 Tests): 110 mg/kg
LD20 [1]: 67
T/C × 100% (Excluding 30 Day Survivors) [1]: +300%
